Laboratory results: patent US20230066011A1, “PYRROLOPYRIMIDINE DERIVATIVE, AND PHARMACEUTICAL COMPOSITION FOR PREVENTING OR TREATING PROTEIN KINASE-RELATED DISEASE COMPRISING SAME AS ACTIVE INGREDIENT” (VORONOI CO., LTD., priority 2019, published 2023)

Experiments:
human GST-CLK1 = molecular target: T1, human GST-CLK1 (Homo sapiens, UniProt P49759); assay: GST-CLK1 enzyme inhibition, ADP-Glo kinase assay; assay type: biochemical; conditions: ATP 10 μM, GST-CLK1 129-end
T1 construct: purified human GST-CLK1 (129-end, SignalChem) enzyme; purchased SignalChem
How it was run: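 Human GST-CLK1 (129-end, 3 ng) reacted with substrate and 10 μM ATP for 1 h at 25° C in 40 mM Tris-HCl pH 7.4, 20 mM MgCl2, 0.5 mg/mL BSA, 50 μM DTT. ADP-Glo luminescence was normalised to solvent control; IC50 (nM) from 3 data sets.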

MDA-MB-231 cell line = assay: Inhibition of proliferation of MDA-MB-231 cancer cells (Cell Titer-Glo); assay type: cell-based; conditions: Homo sapiens, 72 hours
Experimental: (§1) To evaluate an inhibitory effect on the proliferation of cancer cells, each of an MDA-MB-231 cell line (Korean Cell Line Bank #30026) and an MDA-MB-468 cell line as triple-negative breast cancer cell lines, and SHP-77 (ATCC #CRL-2195) as a small-cell lung cancer cell line was cultured in DMEM (HyClone #SH30243) or an RPMI medium (HyClone #SH3027.01) to analyze a cell growth rate. More specifically, a cell line was plated on a 96-well flat bottom plate (Corning #3903) at a density of 2,000 cells/100 μL per well, and then treated with 11 concentrations of the Example compound, a solution of which was diluted 3-fold so that a final concentration of the compound was 10.000000, 3.333333, 1.111111, 0.370370, 0.123457, 0.041152, 0.013717, 0.004572, 0.001524, 0.000508, and 0.000169 μM. After 72 hours, each of the culture media was treated with 100 μL of Cell Titer-Glo (Promega G7573), and then cultured at room temperature for 10 minutes. Then, a degree of luminescence was measured using a microplate reader. A GI50 value was calculated from the measured degree of luminescence using Prism (Version 8.2 GraphPad) software.

LRRK2 (G2019S) = LRRK2 (G2019S) (Homo sapiens, UniProt Q5S007, G2019S); assay: LRRK2 G2019S enzyme inhibition, ADP-Glo kinase assay; assay type: biochemical; parameters: purchased SignalChem L10-12GG; conditions: ATP 25 μM
How it was run: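 Purified human LRRK2 G2019S (16 ng) with 25 μM ATP and 0.2 μg substrate, 2 h at 25° C. in Tris-HCl pH 7.4, MgCl2, BSA, DTT buffer; compounds at 12 final concentrations, 50 μM down to 0.000001024 μM. ADP-Glo luminescence versus solvent control gave IC50.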

human GST-DYRK1A = molecular target: T2, human GST-DYRK1A (Homo sapiens, UniProt Q13627); assay: GST-DYRK1A enzyme inhibition, ADP-Glo kinase assay; assay type: biochemical; conditions: ATP 10 μM, GST-DYRK1A full length, read-out: DYRK1 IC50
T2 construct: purified human GST-DYRK1A (full length, Thermo Scientifics) enzyme; purchased Thermo Scientifics
How it was run: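 Full-length human GST-DYRK1A (10 ng) with 10 μM ATP and specific substrate in 40 mM Tris-HCl pH 7.4, 20 mM MgCl2, 0.5 mg/mL BSA, 50 μM DTT, 1 h at 25 °C. ADP formation read by ADP-Glo luminescence relative to solvent control; IC50 from three data sets.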

LRRK2 = LRRK2 (Homo sapiens, UniProt Q5S007); assay: LRRK2 enzyme inhibition, ADP-Glo kinase assay; assay type: biochemical; parameters: purchased Invitrogen PR8604B; conditions: ATP 10 μM
How it was run: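 Purified human LRRK2 (25 ng) with 10 μM ATP and 0.2 μg substrate in 40 mM Tris-HCl pH 7.4, 20 mM MgCl2, 0.5 mg/mL BSA, 50 μM DTT, 2 h at 25° C. ADP-Glo luminescence; 12-point compound series from 50 μM final; IC50 relative to solvent control.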

MDA-MB-468 cell line = assay: Inhibition of proliferation of MDA-MB-468 cancer cells (Cell Titer-Glo); assay type: cell-based; conditions: Homo sapiens, MDA-MB-468, 72 hours
Experimental: as §1

human DYRK1A and tau = assay: Inhibition of tau phosphorylation, ClariCELL Kinase Cell-Based Assay, HEK 293 cells expressing human DYRK1A and tau; conditions: for inhibition at 1 µM: HEK293, read-out: % inhibition at 1 uM, tau phosphorylation, compound 1 uM; for inhibition at 0.25 µM / inhibition at 0.5 µM: HEK293, tau phosphorylation; for inhibition at 0.25 µM: compound 0.25 uM; for inhibition at 0.5 µM: compound 0.5 uM
Experimental: An inhibitory effect on tau phosphorylation was determined using the ClariCELL™ Kinase Cell-Based Assay service (commercially available from CamaBio USA, Inc.). Human embryonic kidney (HEK 293) cells temporarily expressing human DYRK1A and tau were exposed to the compound, and then lysed to release cell proteins. In this case, the released tau was captured on a plate, and a degree of phosphorylation was quantified by ELISA using a tau phosphorylation-specific antibody.

T1 sequence (P49759 129-484 limits assumed): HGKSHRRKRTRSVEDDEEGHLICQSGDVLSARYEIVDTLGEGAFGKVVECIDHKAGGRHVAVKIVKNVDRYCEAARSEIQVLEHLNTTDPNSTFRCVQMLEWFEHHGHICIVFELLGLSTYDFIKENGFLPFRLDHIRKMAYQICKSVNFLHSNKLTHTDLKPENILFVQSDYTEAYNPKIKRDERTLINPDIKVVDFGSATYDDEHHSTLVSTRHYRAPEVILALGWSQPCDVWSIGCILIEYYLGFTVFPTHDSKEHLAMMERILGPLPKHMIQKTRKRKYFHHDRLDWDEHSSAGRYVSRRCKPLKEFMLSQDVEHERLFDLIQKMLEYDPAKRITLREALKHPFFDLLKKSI
LRRK2, sequence (Q5S007 970-2527 limits assumed): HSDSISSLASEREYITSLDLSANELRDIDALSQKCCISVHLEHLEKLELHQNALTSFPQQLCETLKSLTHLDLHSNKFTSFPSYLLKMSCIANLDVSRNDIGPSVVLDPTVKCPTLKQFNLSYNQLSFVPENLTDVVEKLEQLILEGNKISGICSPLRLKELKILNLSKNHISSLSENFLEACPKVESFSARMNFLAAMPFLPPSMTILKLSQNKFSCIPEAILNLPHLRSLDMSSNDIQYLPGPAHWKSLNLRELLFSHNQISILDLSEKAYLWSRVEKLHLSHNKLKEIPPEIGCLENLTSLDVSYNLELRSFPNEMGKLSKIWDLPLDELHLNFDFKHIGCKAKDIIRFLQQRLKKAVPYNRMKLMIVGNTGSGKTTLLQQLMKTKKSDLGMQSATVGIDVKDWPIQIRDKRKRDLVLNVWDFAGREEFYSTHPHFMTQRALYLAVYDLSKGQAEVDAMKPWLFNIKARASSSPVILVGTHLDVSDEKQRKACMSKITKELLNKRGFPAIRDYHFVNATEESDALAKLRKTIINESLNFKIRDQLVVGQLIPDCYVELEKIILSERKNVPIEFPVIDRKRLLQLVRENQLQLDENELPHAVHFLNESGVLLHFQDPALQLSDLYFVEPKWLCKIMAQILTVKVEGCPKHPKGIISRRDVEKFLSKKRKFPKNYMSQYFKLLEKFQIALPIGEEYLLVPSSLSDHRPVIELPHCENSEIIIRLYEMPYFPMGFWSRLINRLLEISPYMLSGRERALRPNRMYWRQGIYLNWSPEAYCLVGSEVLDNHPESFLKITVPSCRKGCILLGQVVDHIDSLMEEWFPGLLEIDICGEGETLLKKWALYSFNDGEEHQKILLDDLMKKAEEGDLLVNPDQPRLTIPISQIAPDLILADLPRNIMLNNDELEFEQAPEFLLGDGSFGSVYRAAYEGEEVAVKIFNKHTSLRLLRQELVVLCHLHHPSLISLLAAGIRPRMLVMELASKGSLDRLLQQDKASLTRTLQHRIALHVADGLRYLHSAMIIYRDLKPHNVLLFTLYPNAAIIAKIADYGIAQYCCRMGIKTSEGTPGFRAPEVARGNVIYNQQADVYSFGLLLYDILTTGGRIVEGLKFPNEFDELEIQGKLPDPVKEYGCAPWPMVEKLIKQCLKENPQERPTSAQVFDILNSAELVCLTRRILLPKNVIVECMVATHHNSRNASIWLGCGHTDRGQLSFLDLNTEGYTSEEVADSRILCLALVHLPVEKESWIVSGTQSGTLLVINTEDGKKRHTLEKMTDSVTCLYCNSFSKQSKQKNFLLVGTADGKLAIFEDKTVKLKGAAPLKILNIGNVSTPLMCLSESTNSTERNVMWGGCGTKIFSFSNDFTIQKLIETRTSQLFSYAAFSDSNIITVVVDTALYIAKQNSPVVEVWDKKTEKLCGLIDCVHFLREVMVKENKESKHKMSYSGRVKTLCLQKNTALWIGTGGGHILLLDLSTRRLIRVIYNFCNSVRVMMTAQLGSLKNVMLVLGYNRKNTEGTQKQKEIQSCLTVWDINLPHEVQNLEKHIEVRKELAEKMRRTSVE
LRRK2 (G2019S), sequence (Q5S007 970-2527 G2019S limits assumed): as the sequence (Q5S007 970-2527 limits assumed) above, with G1050S counted along it

SMILES | IC50 (human GST-CLK1) [nM] | GI50 (MDA-MB-231 cell line) [nM] | IC50 (LRRK2 (G2019S)) [nM] | IC50 (human GST-DYRK1A) [nM] | IC50 (LRRK2) [nM] | GI50 (MDA-MB-468 cell line) [nM] | inhibition at 1 µM (human DYRK1A and tau) [%] | inhibition at 0.25 µM (human DYRK1A and tau) [%] | inhibition at 0.5 µM (human DYRK1A and tau) [%]
COCC(C)(C)Nc1nc(Nc2ccc(S(=O)(=O)N3CCC(N4CCOCC4)CC3)cc2OC)nc2[nH]cc(C(F)(F)F)c12 [Example 176, N^4-(1-methoxy-2-methylpropan-2-yl)-N^2-(2-methoxy-4-((4-morpholinopiperidin-1-yl)sulfonyl)phenyl)-5-(trifluoromethyl)-7H-pyrrolo[2,3-d]pyrimidine-2,4-diamine] | 301 to 1000 | 101 to 300 | 301 to 1000 | 301 to 1000 | 301 to 1000 |  |  |  | 
N#Cc1c[nH]c2nc(Nc3ccc(C(=O)N4CCOCC4)c4c3OCC4)nc(NC3CCCC3)c12 [Example 319, 4-(cyclo-pentylamino)-2-((4-(morpholine-4-carbonyl)-2,3-dihydrobenzo-furan-7-yl)amino)-7H-pyrrolo[2,3-d]pyrimidine-5-carbonitrile] | < 100 |  |  | 301 to 1000 | < 100 | < 50 |  |  | 
COc1cc(P2(=O)CCN(C3CC3)CC2)ccc1Nc1nc(NC(C)C)c2c(C(F)(F)F)c[nH]c2n1 [Example 440, 1-cyclopropyl-4-(4-((4-(isopropylamino)-5-(trifluoromethyl)-7H-pyrrolo[2,3-d]pyrimidin-2-yl)amino)-3-methoxyphenyl)-1,4-azaphosphinane 4-oxide] | 301 to 1000 |  | < 100 | 301 to 1000 |  |  | 36.3 | 9.6 | 27.8
COCCNc1nc(Nc2ccc(P3(=O)CCN(C4CC4)CC3)cc2OC)nc2[nH]cc(C(F)(F)F)c12 [Example 412, 1-cyclopropyl-4-(3-methoxy-4-((4-((2-methoxyethyl)amino)-5-(trifluoromethyl)-7H-pyrrolo[2,3-d]pyrimidin-2-yl)amino)phenyl)-1,4-azaphosphinane 4-oxide] | < 100 |  |  | < 100 | < 100 | 301 to 1000 |  |  | 
COc1cc(P2(=O)CCN(C3CCOCC3)CC2)ccc1Nc1nc(NC2CCCC2)c2cc[nH]c2n1 [Example 243, 4-(4-((4-(cyclopentylamino)-7H-pyrrolo[2,3-d]pyrimidin-2-yl)amino)-3-methoxyphenyl)-1-(tetrahydro-2H-pyran-4-yl)-1,4-azaphosphinane 4-oxide] | 301 to 1000 |  |  | 301 to 1000 |  | 301 to 1000 |  |  | 
N#Cc1c[nH]c2nc(Nc3ccc(C(=O)N4CCOCC4)c4c3OCC4)nc(NC3CCCCC3)c12 [Example 321, 4-(cyclo-hexylamino)-2-((4-(morpholine-4-carbonyl)-2,3-dihydrobenzo-furan-7-yl)amino)-7H-pyrrolo[2,3-d]pyrimidine-5-carbonitrile] | 101 to 300 |  |  | 301 to 1000 | 101 to 300 | < 50 |  |  | 
O=C(c1ccc(Nc2nc(NCC3CC3)c3c(C(F)(F)F)c[nH]c3n2)c2c1OCCO2)N1CCN(C2COC2)CC1 [Example 422, (8-((4-((cyclo-propylmeth-yl)amino)-5-(trifluoromethyl)-7H-pyrrolo[2,3-d]pyrimidin-2-yl)amino)-2,3-dihydrobenzo[b] [1,4]dioxin-5-yl) (4-(oxetan-3-yl)piperazin-1-yl)methanone] | < 100 |  | < 100 | 301 to 1000 |  |  | 33.2 | 7.4 | 19.6
O=C(c1ccc(Nc2nc(NC3CCCC3)c3cc[nH]c3n2)c2c1CCO2)N1CCC(N2CCOCC2)CC1 [Example 241, (7-((4-(cyclopentylamino)-7H-pyrrolo[2,3-d]pyrimidin-2-yl)amino)-2,3-dihydrobenzofuran-4-yl)(4-morpholinopiperidin-1-yl)methanone] | 301 to 1000 |  |  | 301 to 1000 |  | 301 to 1000 |  |  | 
